{"source": "patent US20230000089A1", "about": "“COMPOSITION ENRICHED IN POLYPHENOLS AND FLAVONOIDS FOR USE AS BIOSTIMULANT AND ANTIMICROBIAL FOR AGRICULTURE APPLICATIONS” (BOTANITEC SPA, priority 2019, published 2023)", "assay_in_all_cases": "Inhibition halo", "format_in_all_cases": "cell-based", "conditions_in_all_cases": "positive control antibiotic 0.1 g/L", "key": {"Salmonella sp": {"tested_on": "Salmonella sp", "procedure": "(§1) Routine experiments were performed comparing the inhibition halos, using an antibiotic as a positive control: carbamycin 0.1 g/L for Bacillus sp; chloramphenicol 0.1 g/L for Enterobacter aerogenes; and, ampicillin 0.1 g/L. for Salmonella sp, Staphylococcus aureus and Escherichia coli as shown in Table 7 below."}, "Staphylococcus aureus": {"tested_on": "Staphylococcus aureus", "procedure": "as §1"}, "Escherichia coli": {"tested_on": "Escherichia coli", "procedure": "FIG. 7. Inhibitory effect of the composition of the invention on Escherichia coli.\nas §1"}, "Bacillus sp": {"tested_on": "Bacillus sp", "procedure": "as §1"}, "Enterobacter aerogenes": {"tested_on": "Enterobacter aerogenes", "procedure": "as §1"}}}
{"compound": "CC1(C)S[C@@H]2[C@H](NC(=O)[C@H](N)c3ccccc3)C(=O)N2[C@H]1C(=O)O", "note": "[ampicillin]", "values": [{"measurement": "Inhibition halo", "setting": "Salmonella sp", "value": 28, "unit": "mm"}, {"measurement": "Inhibition halo", "setting": "Staphylococcus aureus", "value": 25, "unit": "mm"}, {"measurement": "Inhibition halo", "setting": "Escherichia coli", "value": 52, "unit": "mm"}]}
{"compound": "carbamycin", "values": [{"measurement": "Inhibition halo", "setting": "Bacillus sp", "value": 31, "unit": "mm"}]}
{"compound": "O=C(N[C@H](CO)[C@H](O)c1ccc([N+](=O)[O-])cc1)C(Cl)Cl", "note": "[chloramphenicol]", "values": [{"measurement": "Inhibition halo", "setting": "Enterobacter aerogenes", "value": 50, "unit": "mm"}]}
